Source: US9914710B2, “Bicyclic arylcarboxylic acid amides and their use as herbicides” (BAYER CROPSCIENCE AKTIENGESELLSCHAFT, priority 2014, dated 2018)

Experiments:
Assay in all cases: Post-emergence herbicidal action against harmful plants
Assay type in all cases: in vivo
Conditions in all cases: one-leaf stage, application rate 80 g/ha, assessed visually after about 3 weeks vs untreated controls
Veronica persica = tested on: Veronica persica
Protocol: (§1) Seeds of monocotyledonous and dicotyledonous weed and crop plants are laid out in sandy loam in wood-fiber pots, covered with soil and cultivated in a greenhouse under good growth conditions. 2 to 3 weeks after sowing, the test plants are treated at the one-leaf stage. The compounds of the invention, formulated in the form of wettable powders (WP) or as emulsion concentrates (EC), are then sprayed onto the green parts of the plants in the form of an aqueous suspension or emulsion at a water application rate equating to 600 to 800 I/ha, with addition of 0.2% wetting agent. After the test plants have been left to stand in the greenhouse under optimal growth conditions for about 3 weeks, the action of the preparations is assessed visually in comparison to untreated controls (herbicidal action in percent (%): 100% activity=the plants have died, 0% activity=like control plants). For example, compounds no. 1-18, 1-19, 1-20, 1-21, 1-23, 1-25, 1-26, 1-27, 1-30, 1-32, 1-51, 1-52, 1-53, 1-63, 1-65, 1-69, 1-70, 1-75, 1-76, 1-77, 1-78, 1-79, 1-80, 1-84, 2-18, 2-20 and 4-18 at an application rate of 80 g/ha each have 100% efficacy against Stellaria media, Veronica persica and Viola tricolor.

Stellaria media = tested on: Stellaria media
Protocol: as §1

Viola tricolor = tested on: Viola tricolor
Protocol: as §1

Cn1nnnc1NC(=O)c1cc2c(c([S+](C)[O-])c1Cl)CCC2 (racemic) [1-19]
100%: efficacy (herbicidal action in percent) against Veronica persica (Veronica persica) | efficacy (herbicidal action in percent) against Stellaria media (Stellaria media) | efficacy (herbicidal action in percent) against Viola tricolor (Viola tricolor)

CCn1nnnc1NC(=O)c1cc2c(c([S+](C)[O-])c1Cl)CCC2 (racemic) [1-25]
100%: efficacy (herbicidal action in percent) against Veronica persica (Veronica persica) | efficacy (herbicidal action in percent) against Stellaria media (Stellaria media) | efficacy (herbicidal action in percent) against Viola tricolor (Viola tricolor)

Cn1nnnc1NC(=O)c1cc2c(c([S+](C)[O-])c1Cl)CCCC2 (racemic) [1-52]
100%: efficacy (herbicidal action in percent) against Veronica persica (Veronica persica) | efficacy (herbicidal action in percent) against Stellaria media (Stellaria media) | efficacy (herbicidal action in percent) against Viola tricolor (Viola tricolor)

Cn1nnnc1NC(=O)c1cc2c(c([S+](C)[O-])c1Cl)CCO2 (racemic) [1-70]
100%: efficacy (herbicidal action in percent) against Veronica persica (Veronica persica) | efficacy (herbicidal action in percent) against Stellaria media (Stellaria media) | efficacy (herbicidal action in percent) against Viola tricolor (Viola tricolor)

Cn1nnnc1NC(=O)c1cc2c(c([S+](C)[O-])c1Br)CCC2 (racemic) [1-76]
100%: efficacy (herbicidal action in percent) against Veronica persica (Veronica persica) | efficacy (herbicidal action in percent) against Stellaria media (Stellaria media) | efficacy (herbicidal action in percent) against Viola tricolor (Viola tricolor)

CC[S+]([O-])c1c(Br)c(C(=O)Nc2nnnn2C)cc2c1CCC2 (racemic) [1-79]
100%: efficacy (herbicidal action in percent) against Veronica persica (Veronica persica) | efficacy (herbicidal action in percent) against Stellaria media (Stellaria media) | efficacy (herbicidal action in percent) against Viola tricolor (Viola tricolor)

CSc1c(Cl)c(C(=O)Nc2nnnn2C)cc2c1CCC2 [1-18]
100%: efficacy (herbicidal action in percent) against Veronica persica (Veronica persica) | efficacy (herbicidal action in percent) against Stellaria media (Stellaria media) | efficacy (herbicidal action in percent) against Viola tricolor (Viola tricolor)

Cn1nnnc1NC(=O)c1cc2c(c(S(C)(=O)=O)c1Cl)CCC2 [1-20]
100%: efficacy (herbicidal action in percent) against Veronica persica (Veronica persica) | efficacy (herbicidal action in percent) against Stellaria media (Stellaria media) | efficacy (herbicidal action in percent) against Viola tricolor (Viola tricolor)

CCSc1c(Cl)c(C(=O)Nc2nnnn2C)cc2c1CCC2 [1-21]
100%: efficacy (herbicidal action in percent) against Veronica persica (Veronica persica) | efficacy (herbicidal action in percent) against Stellaria media (Stellaria media) | efficacy (herbicidal action in percent) against Viola tricolor (Viola tricolor)

CCS(=O)(=O)c1c(Cl)c(C(=O)Nc2nnnn2C)cc2c1CCC2 [1-23]
100%: efficacy (herbicidal action in percent) against Veronica persica (Veronica persica) | efficacy (herbicidal action in percent) against Stellaria media (Stellaria media) | efficacy (herbicidal action in percent) against Viola tricolor (Viola tricolor)

CCn1nnnc1NC(=O)c1cc2c(c(S(C)(=O)=O)c1Cl)CCC2 [1-26]
100%: efficacy (herbicidal action in percent) against Veronica persica (Veronica persica) | efficacy (herbicidal action in percent) against Stellaria media (Stellaria media) | efficacy (herbicidal action in percent) against Viola tricolor (Viola tricolor)

CCSc1c(Cl)c(C(=O)Nc2nnnn2CC)cc2c1CCC2 [1-27]
100%: efficacy (herbicidal action in percent) against Veronica persica (Veronica persica) | efficacy (herbicidal action in percent) against Stellaria media (Stellaria media) | efficacy (herbicidal action in percent) against Viola tricolor (Viola tricolor)

CSc1c(Cl)c(C(=O)Nc2nnnn2C)cc2c1C(=O)CC2 [1-30]
100%: efficacy (herbicidal action in percent) against Veronica persica (Veronica persica) | efficacy (herbicidal action in percent) against Stellaria media (Stellaria media) | efficacy (herbicidal action in percent) against Viola tricolor (Viola tricolor)

Cn1nnnc1NC(=O)c1cc2c(c(S(C)(=O)=O)c1Cl)C(=O)CC2 [1-32]
100%: efficacy (herbicidal action in percent) against Veronica persica (Veronica persica) | efficacy (herbicidal action in percent) against Stellaria media (Stellaria media) | efficacy (herbicidal action in percent) against Viola tricolor (Viola tricolor)

CSc1c(Cl)c(C(=O)Nc2nnnn2C)cc2c1CCCC2 [1-51, N-(1-methyltetrazol-5-yl)-3-chloro-4-(methylthio)-5,6,7,8-tetrahydronaphthalene-2-carboxamide]
100%: efficacy (herbicidal action in percent) against Veronica persica (Veronica persica) | efficacy (herbicidal action in percent) against Stellaria media (Stellaria media) | efficacy (herbicidal action in percent) against Viola tricolor (Viola tricolor)

Cn1nnnc1NC(=O)c1cc2c(c(S(C)(=O)=O)c1Cl)CCCC2 [1-53]
100%: efficacy (herbicidal action in percent) against Veronica persica (Veronica persica) | efficacy (herbicidal action in percent) against Stellaria media (Stellaria media) | efficacy (herbicidal action in percent) against Viola tricolor (Viola tricolor)

CSc1c(Cl)c(C(=O)Nc2nnnn2C)cc2c1OCC2 [1-63]
100%: efficacy (herbicidal action in percent) against Veronica persica (Veronica persica) | efficacy (herbicidal action in percent) against Stellaria media (Stellaria media) | efficacy (herbicidal action in percent) against Viola tricolor (Viola tricolor)

Cn1nnnc1NC(=O)c1cc2c(c(S(C)(=O)=O)c1Cl)OCC2 [1-65]
100%: efficacy (herbicidal action in percent) against Veronica persica (Veronica persica) | efficacy (herbicidal action in percent) against Stellaria media (Stellaria media) | efficacy (herbicidal action in percent) against Viola tricolor (Viola tricolor)

CSc1c(Cl)c(C(=O)Nc2nnnn2C)cc2c1CCO2 [1-69]
100%: efficacy (herbicidal action in percent) against Veronica persica (Veronica persica) | efficacy (herbicidal action in percent) against Stellaria media (Stellaria media) | efficacy (herbicidal action in percent) against Viola tricolor (Viola tricolor)

CSc1c(Br)c(C(=O)Nc2nnnn2C)cc2c1CCC2 [1-75]
100%: efficacy (herbicidal action in percent) against Veronica persica (Veronica persica) | efficacy (herbicidal action in percent) against Stellaria media (Stellaria media) | efficacy (herbicidal action in percent) against Viola tricolor (Viola tricolor)

Cn1nnnc1NC(=O)c1cc2c(c(S(C)(=O)=O)c1Br)CCC2 [1-77]
100%: efficacy (herbicidal action in percent) against Veronica persica (Veronica persica) | efficacy (herbicidal action in percent) against Stellaria media (Stellaria media) | efficacy (herbicidal action in percent) against Viola tricolor (Viola tricolor)

CCSc1c(Br)c(C(=O)Nc2nnnn2C)cc2c1CCC2 [1-78]
100%: efficacy (herbicidal action in percent) against Veronica persica (Veronica persica) | efficacy (herbicidal action in percent) against Stellaria media (Stellaria media) | efficacy (herbicidal action in percent) against Viola tricolor (Viola tricolor)

CCS(=O)(=O)c1c(Br)c(C(=O)Nc2nnnn2C)cc2c1CCC2 [1-80]
100%: efficacy (herbicidal action in percent) against Veronica persica (Veronica persica) | efficacy (herbicidal action in percent) against Stellaria media (Stellaria media) | efficacy (herbicidal action in percent) against Viola tricolor (Viola tricolor)

CCSc1c(Br)c(C(=O)Nc2nnnn2CC)cc2c1CCC2 [1-84]
100%: efficacy (herbicidal action in percent) against Veronica persica (Veronica persica) | efficacy (herbicidal action in percent) against Stellaria media (Stellaria media) | efficacy (herbicidal action in percent) against Viola tricolor (Viola tricolor)

CSc1c(Cl)c(C(=O)Nc2ncnn2C)cc2c1CCC2 [2-18]
100%: efficacy (herbicidal action in percent) against Veronica persica (Veronica persica) | efficacy (herbicidal action in percent) against Stellaria media (Stellaria media) | efficacy (herbicidal action in percent) against Viola tricolor (Viola tricolor)

Cn1ncnc1NC(=O)c1cc2c(c(S(C)(=O)=O)c1Cl)CCC2 [2-20]
100%: efficacy (herbicidal action in percent) against Veronica persica (Veronica persica) | efficacy (herbicidal action in percent) against Stellaria media (Stellaria media) | efficacy (herbicidal action in percent) against Viola tricolor (Viola tricolor)

CSc1c(Cl)c(C(=O)Nc2nnc(C)o2)cc2c1CCC2 [4-18]
100%: efficacy (herbicidal action in percent) against Veronica persica (Veronica persica) | efficacy (herbicidal action in percent) against Stellaria media (Stellaria media) | efficacy (herbicidal action in percent) against Viola tricolor (Viola tricolor)
